{"source": "patent US11311537B2", "about": "“Diagnosis and treatment of lymphoproliferative disorders with PARP inhibitors” (UNIVERSITY OF MIAMI, priority 2016, dated 2022)", "key": {"DLBCL LMO2+ cell lines [1]": {"system": "DLBCL LMO2+ cell lines", "assay": "Cell death analysis by Annexin V / propidium iodide flow cytometry", "format": "cell-based, human", "details": "4 days, 1 μM olaparib", "text": "FIG. 4A, MTS assay to evaluate effect of olaparib on the proliferation of human lymphoblasts (HCC1187), human primary lung fibroblasts (IMR90) and human lymphomas cells (LMO2 negative (U2932, OCI-Ly1) and LMO2 positive (DOHH2, OCI-Ly8, OCI-Ly19)). *P<0.0001. Two-way ANOVA. FIG. 4B, quantification of colony formation assays in OCI-Ly1, DOHH2, VaL and Val (LMO2 KO)-LMO2-null Val cells exposed to different concentrations of olaparib. Only colonies with 50 or more cells where counted. *P<0.001, Two-way ANOVA. FIG. 4C, quantification of the flow cytometer results for Propidium Iodide (PI) and Annexin V staining after 4 days in presence or absence of 1 μM olaparib for cell death analysis in the indicated lymphoma cell lines. FIG. 4D, representative pictures of colony formation assay quantified in FIG. 4B using DOHH2 cells. […] CI, Combination Index (CI<1 indicates a synergistic effect). FIG. 4F, quantification of γH2AX DNA damage foci in OCI-Ly8 cells exposed to or not exposed to olaparib during 24 hs."}, "[2]": {"system": "MOLT16 (LMO2-positive) versus Jurkat (LMO2-negative)", "assay": "Annexin V cell death analysis in T-ALL cell lines", "format": "cell-based, human", "details": "LMO2 expressing versus LMO2 negative T-ALL cell line, 4 days", "text": "(§1) FIG. 7A, quantification of cell proliferation via MTS assay in MOLT16 (LMO2+) and Jurkat (LMO2−) T cell lymphoblastic leukemia cell lines exposed to different concentrations of olaparib during 4 days. *P<0.001, Two-way ANOVA. FIG. 7B, quantification of the flow cytometer results for Annexin V staining after 4 days in presence or absence of indicated concentrations of olaparib for cell death analysis in the indicated T cell lymphoblastic leukemia cell lines."}, "DLBCL LMO2+ cell lines [3]": {"system": "DLBCL LMO2+ cell lines", "assay": "Colony-forming assay", "format": "cell-based, human", "details": "olaparib pretreatment 48 h, colonies after 14 days", "method": "Colony-forming assay: Clonogenic assays were performed as described elsewhere (McDonnell, Oncogene, 31(32), 3733-3740 (2012)). In total, 500 cells were pretreated with indicated olaparib concentration (0; 1; 10; 100; 1,000; and 10,000 nM) for 48 h and seeded in triplicate in MethoCult conditioned media (Stem Cell Technologies, Vancouver, Canada). After 14 days, macroscopic colonies were stained with iodonitrotetrazolium chloride (Sigma Aldrich) overnight and counted. Only colonies with 50 or more cells were counted."}, "[4]": {"system": "DLBCL LMO2- and control cell lines (OCI-Ly1, U2932, IMR90, HCC1187)", "assay": "MTS cell proliferation assay", "format": "cell-based, human", "method": "(§2) Proliferation and cell cycle studies: Cell proliferation was studied using cell titer 96 Aqueous Non-radioactive cell proliferation (MTS) kit from Promega. This assay was performed following manufacturer's instructions. For cell cycle studies, cells were fixed with 70% cold ethanol and incubated overnight at 4° C. Next, cells were washed once with 1×PBS and incubated with 50 μg/ml Propidium Iodide (Invitrogen) and RNAse (0.1 mg/ml) for 30 min. Cells were analyzed using a flow cytometer (BD FACS Canto-II analyzer)."}, "[5]": {"system": "DLBCL LMO2+ cell lines (OCI-Ly8, OCI-Ly19 and DOHH2)", "assay": "MTS cell proliferation assay", "format": "cell-based, human", "details": "OCI-Ly8, OCI-Ly19, DOHH2 compared with IMR90, HCC1187, OCI-Ly1, U2932; p<0.001 by ANOVA", "method": "as §2"}, "[6]": {"system": "DLBCL LMO2+ cell lines (OCI-Ly8, OCI-Ly19, DOHH2)", "assay": "Colony formation assay, olaparib in combination with genotoxic agents (Combination Index)", "format": "cell-based, human", "source_text": "Only colonies with 50 or more cells where counted. *P<0.001, Two-way ANOVA. […] CI, Combination Index (CI<1 indicates a synergistic effect)."}, "[7]": {"system": "primary human DLBCL tumors expressing or not LMO2", "assay": "MTS assay in primary human tumor samples", "format": "cell-based", "details": "LMO2- and reactive follicular hyperplasia", "text": "FIGS. 6A-6C: Olaparib and doxorubicin show synergy to kill primary DLBCL cells expressing LMO2. FIG. 6A, MTS assay to evaluate the effect of exposure to different concentrations of olaparib alone or in combination with doxorubicin in primary human DLBCL tumors expressing or not LMO2 and a Reactive follicular hyperplasia (LMO2−). CI, Combination Index (CI<1 indicates a synergistic effect). FIG. 6B, Western blots showing LMO2 level in human DLBCL cell lines (OCI-Ly1 (LMO2 negative), OCI-Ly19 (LMO2 positive), human primary lymphoblasts (HCC1187)), and primary human tumors (LMO2+, DLBCL expressing LMO2, LMO2−, DLBCL not expressing LMO2) and RFH-Reactive follicular hyperplasia not expressing LMO2. GAPDH was used as loading control. FIG. 6C, immunohistochemistry (IHC) for LMO2 in primary human DLBCL samples used for FIGS. 6A and 6B. H&E, hematoxylin and eosin staining.\nPrimary tumors were obtained from DLBCL or no DLBCL patients following appropriate consent of the IRB approved protocol and single cell suspension generated using standard techniques.\nas §2"}, "OCI-Ly8 cells": {"system": "OCI-Ly8 cells", "assay": "gammaH2AX DNA damage foci (immunofluorescence)", "format": "cell-based, human", "details": "OCI-Ly8, 24 hs exposure", "method": "Immunofluorescence studies: For studying DNA break repair, DNA double-strand breaks were induced either by exposing the cells to ionization radiation (IR). DLBCL cell lines were exposed to gamma ray source at 10 Gy (cobalt 60 irradiator) and U2OS cells were exposed to 4 Gy. Alternatively double-stranded breaks were induced by adding Doxorubicin (12.5 ng/ml) to the culture during 16-20 hs. Cells were attached on a glass slide pre-coated with poly-lysine for 30 min. Cells were fixed with 4% Para-formaldehyde in 1×PBS for 15 min at room temperature. After fixing, cells were permeabilized using blocking solution (1 mg/ml BSA, 5% Goat/Horse normal serum, 0.5% TritonX-100) for 30 min. Cells were incubated with primary antibodies diluted in blocking solution for 1 h. Cells were washed three times with 1×PBS 5 min each. After washing, cells were incubated with secondary antibodies diluted in blocking solution, Alexa Fluor 488 or Alexa Fluor 594 for 30 min. Cells were then washed with 1×PBS twice for 5 min each wash. Nuclear DNA was visualized via DAPI (1 μg/ml) (Sigma Aldrich) staining for 15 min. Finally, cells were washed with 1×PBS for 15 min to remove excess stain and mounted with Prolong Gold antifade reagent (Invitrogen). Images were acquired using a Leica DMI6000 B Fluorescence microscope."}, "DOHH2": {"system": "DOHH2", "assay": "MTS cell proliferation assay, olaparib IC50", "format": "cell-based", "details": "Homo sapiens, DOHH-2; DOHH2, DLBCL LMO2+", "method": "as §2"}, "OCI-Ly8": {"system": "OCI-Ly8", "assay": "MTS cell proliferation assay, olaparib IC50", "format": "cell-based", "details": "Homo sapiens; OCI-Ly8, DLBCL LMO2+", "method": "as §2"}, "OCI-19": {"system": "OCI-19", "assay": "MTS cell proliferation assay, olaparib IC50", "format": "cell-based", "details": "Homo sapiens; OCI-19, DLBCL LMO2+", "method": "as §2"}, "[8]": {"system": "OCI-Ly1 xenografts (LMO2 negative)", "assay": "DLBCL subcutaneous xenograft model", "format": "in vivo, NOD/SCID mice", "details": "olaparib 50 mg/kg", "text": "(§3) Subcutaneous xenograft tumors were generated by human DLBCL cells (OCI-Ly19 or OCI-Ly1) injected into NOD/SCID (5 million cells/mouse). Treatment started when tumor reached 100 mm^3 (˜10 days post-injection). FIG. 5A, Kaplan-Meier plots: OCI-Ly19 (n=per group: n=8 CTL, n=9 olaparib, n=5 RCHOP, n=5 RCHOP+olaparib) and OCI-Ly1 (n=5 per group). Mice were euthanized when the tumor volume reached 1500 mm^3 in accordance with the institutional guidelines. Statistical analysis was done by the log rank (Mantel-Cox) test. FIG. 5B, Ex vivo analyses of the tumors. The xenografts were generated as described above. Shown are representative FACS analyses of the OCI-Ly19 tumor cells exposed or not to olaparib during 3 days and stained with Annexin V and propidium iodide (PI). FIG. 5C, Tunnel assays in OCI-Ly19 tumor samples exposed or not to olaparib.\n(§4) All mice studies were conducted after approval of IACUC protocol. For DLBCL xenograft model, five-week-old female NOD/SCID mice (Harlan's) were subcutaneously injected with DLBCL cell line OCI-LY19 (5×10^6 cells/mouse) into the right flank. Once tumors reached 100 mm^3, mice were subdivided into two experimental groups (n=5-7/group). One group received buffer solution (1×PBS) and the other group received Olaparib (50 mg/kg; LC Labs, MA) for 21 consecutive days via IP injection. In separate experiments, one group received buffer solution (1×PBS), second group received Olaparib (50 mg/kg; LC Labs, MA), third group RCHOP (Rituximab 20 mg/kg, i.v. for a single dose on D1; cyclophosphamide, 40 mg/kg, D1; doxorubicin, 3.3 mg/kg, i.v. D1; vincristine, 0.5 mg/kg, i.v. D1; and prednisone, 0.2 mg/kg, every day by oral gavage on D1-5 and fourth group combination of Olaparib with RCHOP. Tumor bearing mice were observed every two days for tumor volume and weight loss was measured using standard calipers. Once the tumor volume exceeded 1500 mm^3 or the mouse […] dropped more than 10% total body weight, the mice were sacrificed."}, "[9]": {"system": "OCI-Ly19 xenografts (LMO2 positive)", "assay": "DLBCL subcutaneous xenograft model", "format": "in vivo, NOD/SCID mice", "details": "for lifespan (survival): olaparib 50 mg/kg IP, 21 days, vs control group", "text": "as §3, §4"}, "[10]": {"details": "breast cancer treated patients; cited from earlier work"}, "[11]": {"system": "MOLT16 (LMO2-positive) versus Jurkat (LMO2-negative)", "assay": "MTS cell proliferation assay in T-ALL cell lines", "format": "cell-based, human", "details": "LMO2 expressing versus LMO2 negative T-ALL cell line, 4 days, p<0.001 by ANOVA", "text": "as §1, §2"}}, "note": "“Also recorded” adds a separate entry of the source."}
{"smiles": "O=C(c1cc(Cc2n[nH]c(=O)c3ccccc23)ccc1F)N1CCN(C(=O)C2CC2)CC1", "note": "[olaparib]", "values": [{"measurement": "cell death via apoptosis", "setting": "DLBCL LMO2+ cell lines [1]", "result": "induces cell apoptosis; also recorded: increased cell death via apoptosis"}, {"measurement": "cell death", "setting": "[2]", "result": "induces cell apoptosis"}, {"measurement": "cell death", "setting": "[2]; listed as Olaparib", "result": "increase in cell death"}, {"measurement": "colony formation", "setting": "DLBCL LMO2+ cell lines [3]", "result": "pronounced olaparib-mediated decrease in colony formation"}, {"measurement": "effect on DLBCL LMO2- and control cell lines", "setting": "[4]", "result": "no or minimal effect"}, {"measurement": "cell proliferation", "setting": "[5]", "result": "decreases proliferation; also recorded: statistically significant (p<0.001 by ANOVA) decrease in cell proliferation"}, {"measurement": "synergy with doxorubicin", "setting": "[6]; olaparib + doxorubicin, three DLBCL LMO2+ cell lines, preliminary studies", "result": "synergistic"}, {"measurement": "proliferation capacity of primary tumor samples, olaparib alone", "setting": "[7]", "result": "only affected the proliferation capacity of the DLBCL sample expressing LMO2 protein"}, {"measurement": "proliferation capacity of primary tumor samples, olaparib in combination with doxorubicin", "setting": "[7]", "result": "only affected the proliferation capacity of the DLBCL sample expressing LMO2 protein"}, {"measurement": "proliferation capacity of primary tumor samples, olaparib in combination with doxorubicin", "setting": "[7]; listed as Olaparib", "result": "show synergy"}, {"measurement": "DNA damage (γH2AX foci)", "setting": "OCI-Ly8 cells", "result": "increased DNA damage"}, {"measurement": "IC50", "setting": "DOHH2", "result": 120, "unit": "nM"}, {"measurement": "IC50", "setting": "OCI-Ly8", "result": 800, "unit": "nM"}, {"measurement": "IC50", "setting": "OCI-19", "result": 130, "unit": "nM"}, {"measurement": "lifespan (survival)", "setting": "[8]", "result": "did not produce any effect"}, {"measurement": "cell death in tumors (Annexin V, PI, Tunnel assay)", "setting": "[9]; OCI-Ly19 tumors, ex vivo analysis", "result": "increase in cell death"}, {"measurement": "lifespan (survival)", "setting": "[9]; OCI-Ly19 xenografts", "result": "increased the lifespan"}, {"measurement": "lifespan (survival)", "setting": "[9]; OCI-Ly19 xenografts, listed as Olaparib", "result": "prolongs survival"}, {"measurement": "lifespan in combination with RCHOP", "setting": "[9]; OCI-Ly19 xenografts, olaparib + RCHOP vs RCHOP", "result": "increased the life-span"}, {"measurement": "tumor growth in vivo", "setting": "[9]; human DLBCL cells expressing LMO2, murine xenograft", "result": "slows growth"}, {"measurement": "concentration observed in the blood", "setting": "[10]", "result": 2000, "unit": "nM"}, {"measurement": "cell proliferation", "setting": "[11]", "result": "decreases proliferation"}, {"measurement": "cell proliferation", "setting": "[11]; listed as Olaparib", "result": "statistically significant (p<0.001 by ANOVA) decrease in cell proliferation"}]}
{"smiles": "N.N.O=C([O-])C1(C(=O)[O-])CCC1.[Pt+2]", "note": "[carboplatin]", "values": [{"measurement": "synergy with olaparib (carboplatin)", "setting": "[6]; olaparib + carboplatin, OCI-Ly19 and DOHH2", "result": "showed synergy"}]}
